In brackets after ≈: the same amount, converted by molar mass. Where two headings read alike, the source gives them in different places.
Experiments:
Fusarium = experiment: Minimum inhibitory concentration (MIC), serial dilution in broth, Fusarium; type: cell-based; settings: 168 h, read-out: MIC, D = Fusarium
Procedure: (§1) Solutions of the experimental compounds in dimethyl sulfoxide and an aqueous solution of sodium pyrithione were serially diluted in nutrient broth (Tryptic Soy Broth for bacteria and Sabouraud Dextrose Broth for fungi) in microtiter plates. Equal volumes of a broth suspension of bacteria (10^6 CFU/ml) or fungi (10^5 cells or spores/ml) were added to each dilution, and the plates were incubated at 37° C. (bacteria and yeast) or 28° C. (molds). Bacteria, yeast, and molds were incubated two, five, and seven days respectively before determining the highest inhibitory dilution.

Aureobasidium pullulans = experiment: Minimum inhibitory concentration (MIC), serial dilution in broth, Aureobasidium pullulans; type: cell-based; settings: 168 h, read-out: MIC, B = Aureobasidium pullulans
Procedure: as §1

Aspergillus niger = experiment: Minimum inhibitory concentration (MIC), serial dilution in broth, Aspergillus niger; type: cell-based; settings: 168 h, read-out: MIC, C = Aspergillus niger
Procedure: as §1

[1] = UV stability (photolysis in aqueous solution, immersion well photochemical apparatus); type: physicochemical
Procedure: The UV stability of IIa was evaluated using a immersion well photochemical apparatus equipped with a Hanovia 450 Watt medium pressure lamp. An aqueous solution (100 ppm in KH2 PO4 buffer pH=7) was irradiated at 25° C. with air agitation for a period of 110 minutes. The rate of photolysis was monitored by UV spectroscopy. Aliquots were taken through a side port of the apparatus into an amber vial and the absorption at 325 nm was measured. A sodium pyrithione aqueous solution (i.e., sodium OMADINE® biocide) was irradiated similarly for comparative purposes.

Candida albicans = experiment: Minimum inhibitory concentration (MIC), serial dilution in broth, Candida albicans; type: cell-based; settings: 120 h, read-out: MIC, A = Candida albicans
Procedure: as §1

[2] = molds: 28° C., seven days, Sabouraud Dextrose Broth
[3] = fungi, Sabouraud Dextrose Broth, molds: 28° C., seven days
[4] = yeast, 37° C., five days, Sabouraud Dextrose Broth

Row | SMILES | MIC (Fusarium; [2]) [µg/mL] | MIC (Aureobasidium pullulans; [3]) [µg/mL] | MIC (Aspergillus niger; [2]) [µg/mL] | half-life ([1]; first order, 100 ppm in KH2PO4 buffer pH=7, 25° C., 450 Watt medium pressure lamp, absorption at 325 nm, read-out: photodecomposition T1/2) [min] | MIC (Candida albicans; [4]) [µg/mL] | MIC (Fusarium) [µg/mL] | MIC (Aureobasidium pullulans) [µg/mL] | MIC (Aspergillus niger) [µg/mL] | MIC (Candida albicans) [µg/mL] | photodecomposition time (decomposed in) ([1]; aqueous solution, same conditions as IIa (pH=7, 25° C., 450 Watt lamp)) [s]
1 | Cn1c(=O)c2ccccc2n(O)c1=S [Compound IIa, 1-HYDROXY-3-METHYL-2-THIOXO-1,2-DIHYDROQUINAZOLINE-4(3H)-ONE] | 128 (≈ 615 µM) | < 2 | < 2 | 55 | < 2 |  |  |  |  | 
2 | O=c1[nH]c(=S)n(O)c2ccccc12 [Compound IIg] | 512 (≈ 2640 µM) | 128 (≈ 659 µM) | 1020 (≈ 5270 µM) |  | 64 (≈ 330 µM) |  |  |  |  | 
3 | C=CC(=O)On1c(=S)n(C)c(=O)c2ccccc21 [Compound IIj] | 16 (≈ 61 µM) | 4 (≈ 15.3 µM) | 8 (≈ 30.5 µM) |  | 4 (≈ 15.3 µM) |  |  |  |  | 
4 | Cn1c(=O)c2ccccc2n(O)c1=S.[Na] [IIa-Na, 1-hydroxy-3-methyl-2-thioxo-1,2-dihydroquinazoline-4(3H)-one, sodium salt] |  |  |  |  |  | 4 |  |  |  | 
5 | Cn1c(=O)c2ccc(Cl)cc2n(O)c1=S [IIc] | 64 (≈ 264 µM) | < 2 | 4 (≈ 16.5 µM) |  | < 2 |  |  |  |  | 
6 | Cc1ccc2c(c1)c(=O)n(C)c(=S)n2O [IId] | 128 (≈ 576 µM) | 4 (≈ 18 µM) | < 2 |  | < 2 |  |  |  |  | 
7 | O=c1c2ccccc2n(O)c(=S)n1-c1ccccc1 [IIe] | 64 (≈ 237 µM) | 16 (≈ 59.2 µM) | 32 (≈ 118 µM) |  | 16 (≈ 59.2 µM) |  |  |  |  | 
8 | C=CCn1c(=O)c2ccccc2n(O)c1=S [IIf] | 8 (≈ 34.1 µM) | 16 (≈ 68.3 µM) | 16 (≈ 68.3 µM) |  | 4 (≈ 17.1 µM) |  |  |  |  | 
9 | COn1c(=S)n(C)c(=O)c2ccccc21 [IIh] | 512 (≈ 2300 µM) | 512 (≈ 2300 µM) | 512 (≈ 2300 µM) |  | 256 (≈ 1150 µM) |  |  |  |  | 
10 | CC(=O)On1c(=S)n(C)c(=O)c2ccccc21 [IIi, 1-ACETOYLOXY-3-METHYL-2-THIOXO-1,2-DIHYDROQUINAZOLINE-4(3H)-ONE] |  |  |  |  | 2 (≈ 7.99 µM) |  |  |  |  | 
11 | Cn1c(=O)c2ccccc2n(OC(=O)c2ccccc2)c1=S [IIk] | 512 (≈ 1640 µM) | 256 (≈ 820 µM) | 512 (≈ 1640 µM) |  | 512 (≈ 1640 µM) |  |  |  |  | 
12 | C=C(C)C(=O)On1c(=S)n(C)c(=O)c2ccccc21 [IIl] | 512 (≈ 1850 µM) | 4 (≈ 14.5 µM) | 32 (≈ 116 µM) |  | 128 (≈ 463 µM) |  |  |  |  | 
13 | Cn1c(=O)c2ccccc2n(OC(=O)O)c1=S [IIm] | 16 (≈ 63.4 µM) | 8 (≈ 31.7 µM) | 8 (≈ 31.7 µM) |  | 4 (≈ 15.9 µM) |  |  |  |  | 
14 | CNC(=O)On1c(=S)n(C)c(=O)c2ccccc21 [IIn, 1-N-METHYLCARBAMATE-3-METHYL-2-THIO-1,2-DIHYDROQUINAZOLINE-4(3H)-ONE] |  |  |  |  |  | 16 (≈ 60.3 µM) | 8 (≈ 30.2 µM) | 8 (≈ 30.2 µM) | 4 (≈ 15.1 µM) | 
15 | CCOC(=O)c1ccccc1N(O)C(=S)NC [Ib] | 128 (≈ 503 µM) | 8 (≈ 31.5 µM) | 8 (≈ 31.5 µM) |  | 8 (≈ 31.5 µM) |  |  |  |  | 
16 | CNC(=S)N(O)c1cc(Cl)ccc1C(=O)OC [Ic] | 128 (≈ 466 µM) | 4 (≈ 14.6 µM) | 8 (≈ 29.1 µM) |  | < 2 |  |  |  |  | 
17 | CNC(=S)N(O)c1ccc(C)cc1C(=O)OC [Id] | 512 (≈ 2010 µM) | 8 (≈ 31.5 µM) | 8 (≈ 31.5 µM) |  | 8 (≈ 31.5 µM) |  |  |  |  | 
18 | CCOC(=O)c1ccccc1N(O)C(=S)Nc1ccccc1 [Ie] | 64 (≈ 202 µM) | 32 (≈ 101 µM) | 64 (≈ 202 µM) |  | 16 (≈ 50.6 µM) |  |  |  |  | 
19 | C=CCNC(=S)N(O)c1ccccc1C(=O)OCC [If] | 16 (≈ 57.1 µM) | 16 (≈ 57.1 µM) | 16 (≈ 57.1 µM) |  | 4 (≈ 14.3 µM) |  |  |  |  | 
20 | On1ccccc1=S [sodium pyrithione, reference compound] |  |  |  |  |  |  |  |  |  | 15

Reference: patent publication US5384405A, “Process for making N-hydroxyl-2-thio-ouinazolin-4-ones” (Olin Corporation, priority 1994, dated 1995)
